The values that follow come from ChEMBL document CHEMBL5465560, “Selectivity Literature for EUbOPEN Chemogenomic Library” (2024).

Test [1] addresses Ribosomal protein S6 kinase alpha-1 (Homo sapiens, UniProt Q15418). Kind of test: Selectivity interaction (ActivX KiNativ screen (ex vivo kinase selectivity in human PBMCs)) EUB0001619a RPS6KA1. Format: cell-based. The conditions noted are these: PBMC, at 1 µM.
The target in test [2] is Serine/threonine-protein kinase 10 (Homo sapiens) (UniProt O94804). Kind of test: Selectivity interaction (KinomeScan (DiscoverX)) EUB0001619a STK10. The conditions noted are these: at 1 µM.
For test [3], the target named is NT-3 growth factor receptor (Homo sapiens, UniProt Q16288). The test is described as follows: Selectivity interaction (KinomeScan (DiscoverX)) EUB0001049a NTRK3. The settings on record: at 1 µM.
Test [4] deals with T1, Serine/threonine-protein kinase BRSK2 (Homo sapiens) (UniProt Q8IWQ3).
T1 sequence (whole entry): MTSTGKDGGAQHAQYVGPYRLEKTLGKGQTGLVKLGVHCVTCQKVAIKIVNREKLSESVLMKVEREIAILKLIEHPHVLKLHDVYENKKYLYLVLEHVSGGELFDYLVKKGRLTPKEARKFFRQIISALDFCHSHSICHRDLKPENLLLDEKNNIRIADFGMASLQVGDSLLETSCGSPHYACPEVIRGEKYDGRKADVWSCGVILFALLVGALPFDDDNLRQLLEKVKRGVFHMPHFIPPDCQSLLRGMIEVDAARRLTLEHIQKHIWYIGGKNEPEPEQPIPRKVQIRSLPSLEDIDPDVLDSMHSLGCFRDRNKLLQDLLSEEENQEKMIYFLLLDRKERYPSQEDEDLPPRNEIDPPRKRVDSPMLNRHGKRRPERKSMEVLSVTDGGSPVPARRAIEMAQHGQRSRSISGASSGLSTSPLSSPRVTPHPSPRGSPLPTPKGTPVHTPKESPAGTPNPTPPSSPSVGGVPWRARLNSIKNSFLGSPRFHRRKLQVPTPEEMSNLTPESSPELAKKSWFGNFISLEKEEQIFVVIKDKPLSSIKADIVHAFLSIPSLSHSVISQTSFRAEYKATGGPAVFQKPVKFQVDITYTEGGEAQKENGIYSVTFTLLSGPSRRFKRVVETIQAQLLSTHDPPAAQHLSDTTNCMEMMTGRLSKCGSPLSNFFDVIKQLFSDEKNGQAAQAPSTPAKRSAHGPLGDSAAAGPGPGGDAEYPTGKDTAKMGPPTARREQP
The test is described as follows: Selectivity interaction (Upstate Kinase Profiler service (Millipore)) EUB0000056c BRSK2. The settings on record: at 1 µM.

Test [5] addresses Serine/threonine-protein kinase Nek4 (Homo sapiens) (UniProt P51957). The test is described as follows: Selectivity interaction (KinomeScan (DiscoverX)) EUB0000655a NEK4. The conditions noted are these: at 10 µM.
The target of test [6] is T2, Serine/threonine-protein kinase DCLK3 (Homo sapiens) (UniProt Q9C098).
T2 sequence (whole entry): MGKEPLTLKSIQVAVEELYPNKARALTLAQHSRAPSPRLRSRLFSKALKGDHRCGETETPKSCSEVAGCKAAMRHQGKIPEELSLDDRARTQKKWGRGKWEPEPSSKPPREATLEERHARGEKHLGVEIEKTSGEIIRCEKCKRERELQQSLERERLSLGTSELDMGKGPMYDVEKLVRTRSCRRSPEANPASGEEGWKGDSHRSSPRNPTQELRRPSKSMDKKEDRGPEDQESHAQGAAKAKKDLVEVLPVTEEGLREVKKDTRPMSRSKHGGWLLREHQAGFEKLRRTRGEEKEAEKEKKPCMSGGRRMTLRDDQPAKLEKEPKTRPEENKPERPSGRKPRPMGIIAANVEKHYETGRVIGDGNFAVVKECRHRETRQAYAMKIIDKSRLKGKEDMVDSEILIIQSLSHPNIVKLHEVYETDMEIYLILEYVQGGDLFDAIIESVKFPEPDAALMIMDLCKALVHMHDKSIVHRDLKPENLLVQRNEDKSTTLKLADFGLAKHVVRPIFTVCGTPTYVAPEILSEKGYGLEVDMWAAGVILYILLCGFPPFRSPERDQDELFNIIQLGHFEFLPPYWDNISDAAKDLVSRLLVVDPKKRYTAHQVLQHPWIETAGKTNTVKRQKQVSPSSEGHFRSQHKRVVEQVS
Kind of test: Selectivity interaction (KinomeScan (DiscoverX)) EUB0000618a DCLK3. The conditions noted are these: at 10 µM.

The target of test [7] is Serine/threonine-protein kinase SBK1 (Homo sapiens) (UniProt Q52WX2). The test is described as follows: Selectivity interaction (KinomeScan (DiscoverX)) EUB0000092b SBK1. The conditions noted are these: at 10 µM.
The target in test [8] is Mitogen-activated protein kinase 14 (Homo sapiens, UniProt Q16539). The test is described as follows: Selectivity interaction (KinomeScan (DiscoverX)) EUB0000229b MAPK14. The settings on record: at 10 µM.

SMILES strings stand for the structures.

Sequence of NT-3 growth factor receptor (Q16288 32-839 limits assumed): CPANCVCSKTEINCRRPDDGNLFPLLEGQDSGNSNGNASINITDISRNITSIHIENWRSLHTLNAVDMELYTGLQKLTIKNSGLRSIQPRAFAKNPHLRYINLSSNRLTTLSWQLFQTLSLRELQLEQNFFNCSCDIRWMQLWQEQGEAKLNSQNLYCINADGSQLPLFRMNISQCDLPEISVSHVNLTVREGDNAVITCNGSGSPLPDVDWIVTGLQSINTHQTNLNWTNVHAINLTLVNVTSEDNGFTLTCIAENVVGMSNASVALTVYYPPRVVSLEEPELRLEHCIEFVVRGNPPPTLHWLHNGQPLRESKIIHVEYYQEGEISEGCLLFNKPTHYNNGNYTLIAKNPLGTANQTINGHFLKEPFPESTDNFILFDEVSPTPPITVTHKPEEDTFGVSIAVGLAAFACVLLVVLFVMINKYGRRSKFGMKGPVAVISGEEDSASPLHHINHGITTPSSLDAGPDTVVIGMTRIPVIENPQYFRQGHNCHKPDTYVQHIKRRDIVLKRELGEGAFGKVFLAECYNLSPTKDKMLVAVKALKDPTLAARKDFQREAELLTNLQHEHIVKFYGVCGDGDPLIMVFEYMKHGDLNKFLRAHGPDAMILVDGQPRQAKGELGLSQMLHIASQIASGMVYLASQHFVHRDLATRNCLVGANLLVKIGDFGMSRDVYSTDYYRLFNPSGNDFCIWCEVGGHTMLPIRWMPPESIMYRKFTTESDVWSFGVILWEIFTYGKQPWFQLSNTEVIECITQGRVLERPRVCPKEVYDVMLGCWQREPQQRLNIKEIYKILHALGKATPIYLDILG
Sequence of Serine/threonine-protein kinase 10 (Homo sapiens) (O94804 whole entry, looked up): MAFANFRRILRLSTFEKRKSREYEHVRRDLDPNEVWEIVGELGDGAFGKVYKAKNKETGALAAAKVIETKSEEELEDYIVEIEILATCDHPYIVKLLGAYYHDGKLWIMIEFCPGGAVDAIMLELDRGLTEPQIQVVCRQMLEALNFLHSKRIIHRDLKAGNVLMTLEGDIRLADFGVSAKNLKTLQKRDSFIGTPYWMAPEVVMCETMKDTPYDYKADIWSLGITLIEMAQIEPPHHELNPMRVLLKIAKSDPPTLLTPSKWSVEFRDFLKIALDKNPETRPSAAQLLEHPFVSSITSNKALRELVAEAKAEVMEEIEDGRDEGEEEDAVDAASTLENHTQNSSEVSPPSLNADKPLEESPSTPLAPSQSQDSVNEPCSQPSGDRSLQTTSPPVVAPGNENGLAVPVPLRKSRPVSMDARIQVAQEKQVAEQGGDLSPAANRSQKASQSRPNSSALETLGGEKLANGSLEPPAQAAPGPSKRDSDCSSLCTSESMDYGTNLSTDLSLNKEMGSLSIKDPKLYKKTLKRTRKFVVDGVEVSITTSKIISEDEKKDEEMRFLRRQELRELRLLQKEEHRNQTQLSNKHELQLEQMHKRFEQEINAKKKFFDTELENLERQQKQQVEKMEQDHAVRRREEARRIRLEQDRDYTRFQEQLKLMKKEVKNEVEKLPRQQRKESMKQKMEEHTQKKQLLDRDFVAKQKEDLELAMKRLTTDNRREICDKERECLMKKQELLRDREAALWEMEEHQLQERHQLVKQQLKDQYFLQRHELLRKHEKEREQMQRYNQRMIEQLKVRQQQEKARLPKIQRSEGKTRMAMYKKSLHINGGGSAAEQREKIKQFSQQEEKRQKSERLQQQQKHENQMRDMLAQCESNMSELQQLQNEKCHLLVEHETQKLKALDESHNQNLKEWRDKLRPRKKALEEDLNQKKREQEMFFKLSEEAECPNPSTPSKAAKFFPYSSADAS
Sequence of Serine/threonine-protein kinase Nek4 (Homo sapiens) (P51957 whole entry, looked up): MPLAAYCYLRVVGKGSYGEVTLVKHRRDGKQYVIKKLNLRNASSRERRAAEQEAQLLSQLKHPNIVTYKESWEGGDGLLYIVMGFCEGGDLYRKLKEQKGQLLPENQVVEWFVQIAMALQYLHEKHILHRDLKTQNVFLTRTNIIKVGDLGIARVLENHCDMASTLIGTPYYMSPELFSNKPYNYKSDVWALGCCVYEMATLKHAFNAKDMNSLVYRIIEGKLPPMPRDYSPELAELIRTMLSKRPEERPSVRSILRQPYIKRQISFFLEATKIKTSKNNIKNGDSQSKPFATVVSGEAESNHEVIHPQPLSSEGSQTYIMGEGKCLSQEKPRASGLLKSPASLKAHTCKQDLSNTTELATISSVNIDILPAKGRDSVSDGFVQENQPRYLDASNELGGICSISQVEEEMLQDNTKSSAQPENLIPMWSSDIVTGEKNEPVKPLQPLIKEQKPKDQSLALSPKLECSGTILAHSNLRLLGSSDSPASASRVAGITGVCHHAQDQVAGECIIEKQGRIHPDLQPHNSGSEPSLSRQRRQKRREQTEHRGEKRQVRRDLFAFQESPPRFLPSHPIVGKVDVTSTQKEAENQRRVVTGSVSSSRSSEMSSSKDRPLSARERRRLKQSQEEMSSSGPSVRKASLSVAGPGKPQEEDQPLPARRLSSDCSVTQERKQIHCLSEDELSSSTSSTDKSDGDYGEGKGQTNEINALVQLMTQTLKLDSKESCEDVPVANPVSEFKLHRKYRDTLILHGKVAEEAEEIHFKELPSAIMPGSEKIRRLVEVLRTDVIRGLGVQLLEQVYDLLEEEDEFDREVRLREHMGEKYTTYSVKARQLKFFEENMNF
Sequence of Ribosomal protein S6 kinase alpha-1 (Q15418 whole entry): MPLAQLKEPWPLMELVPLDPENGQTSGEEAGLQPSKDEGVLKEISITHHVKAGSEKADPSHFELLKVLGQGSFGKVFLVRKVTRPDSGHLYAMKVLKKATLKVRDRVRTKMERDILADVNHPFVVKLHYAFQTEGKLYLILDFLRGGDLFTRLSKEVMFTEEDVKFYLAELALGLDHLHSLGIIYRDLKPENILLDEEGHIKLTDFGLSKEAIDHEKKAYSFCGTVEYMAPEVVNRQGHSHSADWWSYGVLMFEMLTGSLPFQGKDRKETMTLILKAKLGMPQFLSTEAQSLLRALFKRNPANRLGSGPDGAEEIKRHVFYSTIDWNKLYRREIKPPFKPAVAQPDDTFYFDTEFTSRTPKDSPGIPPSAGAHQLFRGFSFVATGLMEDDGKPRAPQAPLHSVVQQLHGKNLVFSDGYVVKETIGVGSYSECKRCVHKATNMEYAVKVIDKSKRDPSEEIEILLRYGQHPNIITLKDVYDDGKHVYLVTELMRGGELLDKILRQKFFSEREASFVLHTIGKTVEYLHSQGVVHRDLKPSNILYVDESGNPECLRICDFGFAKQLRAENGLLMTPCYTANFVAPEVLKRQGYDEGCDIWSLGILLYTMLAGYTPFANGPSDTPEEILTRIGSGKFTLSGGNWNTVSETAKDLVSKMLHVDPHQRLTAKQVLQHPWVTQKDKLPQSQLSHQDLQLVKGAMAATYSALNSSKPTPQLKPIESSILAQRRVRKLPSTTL
Sequence of Mitogen-activated protein kinase 14 (Q16539 whole entry): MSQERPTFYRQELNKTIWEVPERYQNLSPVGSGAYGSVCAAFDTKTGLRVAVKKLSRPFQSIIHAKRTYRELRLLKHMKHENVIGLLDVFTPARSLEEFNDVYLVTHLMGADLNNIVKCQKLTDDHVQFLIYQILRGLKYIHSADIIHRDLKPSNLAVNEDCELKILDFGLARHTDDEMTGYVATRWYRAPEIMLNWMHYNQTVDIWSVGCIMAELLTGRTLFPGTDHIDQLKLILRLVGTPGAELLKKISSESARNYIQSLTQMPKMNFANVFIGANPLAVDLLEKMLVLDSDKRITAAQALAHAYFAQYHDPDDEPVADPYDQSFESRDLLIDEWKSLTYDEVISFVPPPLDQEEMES
Sequence of Serine/threonine-protein kinase SBK1 (Homo sapiens) (Q52WX2 whole entry): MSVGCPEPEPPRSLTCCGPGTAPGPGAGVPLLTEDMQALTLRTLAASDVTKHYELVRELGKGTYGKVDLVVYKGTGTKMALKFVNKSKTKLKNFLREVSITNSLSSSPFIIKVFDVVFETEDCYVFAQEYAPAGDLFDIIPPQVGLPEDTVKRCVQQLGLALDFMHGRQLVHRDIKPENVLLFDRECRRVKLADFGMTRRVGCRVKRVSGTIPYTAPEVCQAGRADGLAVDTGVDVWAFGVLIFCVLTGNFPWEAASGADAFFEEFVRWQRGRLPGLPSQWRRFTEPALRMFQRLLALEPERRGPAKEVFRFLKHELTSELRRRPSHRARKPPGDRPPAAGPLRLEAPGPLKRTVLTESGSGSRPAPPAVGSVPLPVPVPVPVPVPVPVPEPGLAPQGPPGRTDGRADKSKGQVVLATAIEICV

Take `N#Cc1cccc(-c2c[nH]c3ncnc(N4CCOCC4)c23)c1`: in test [1], the % of inhibition was 33%. This compound yielded a % of control in test [2] of 33%.
`COc1cc(Nc2nc(C)cc(-c3cnn4nc(OC)ccc34)n2)cc(C(F)(F)F)c1` came in with a % of control in test [3] of 84%.
In turn, `Cc1ccc(-c2ccc3c(ccc4sc5c(c43)NC[C@@H](C)NC5=O)n2)cn1` yielded a % of inhibition in test [4] of 93%.
`CN(C)CCOc1ccc(-c2nc(-c3ccncc3)c(-c3ccc4c(c3)CC/C4=N\O)[nH]2)cc1` displayed a % of control in test [5] of 100%.
Consider `O[C@H]1CC[C@H](Nc2ncc3nc(Nc4c(F)cc(F)cc4F)n([C@H]4CCOC4)c3n2)CC1`, for which, in test [6], the % of control was 98%.
In test [7], `CCC(=O)N1CCN(c2ccc(-n3c(=O)ccc4cnc5ccc(-c6cnc7ccccc7c6)cc5c43)cc2C(F)(F)F)CC1` showed a % of control of 88%.
Take `COc1cc(N(C)c2ccnc3ccc(C(F)(F)F)cc23)cc(OC)c1OC`: the % binding in test [8] is 81%.
